From ChEMBL document CHEMBL3632573, “Triazine as a promising scaffold for its versatile biological behavior” (Eur J Med Chem, 2015)

Target: Histone deacetylase
Assay: Inhibition of HDAC (unknown origin)
Format: protein assay, Homo sapiens

- IC50: < 200 nM
SMILES: Nc1nc(NCc2ccc(C(=O)Nc3ccccc3N)cc2)nc(NC2CCCC2)n1
